Test results from US20200230118A1, “USE OF BERBERINE OR ACTIVE METABOLITE THEREOF IN PREPARATION OF DRUG FOR PREVENTING AND/OR TREATING PHENYLKETONURIA” (Institute of Materia Medica, Chinese Academy of Medical …, priority 2017, published 2020).

What was measured:
[1] = test system: ICR mice; assay: Effect of dihydroberberine on blood phenylpyruvate and tyrosine in ICR mice; type: in vivo
Experimental: The concentrations of phenylpyruvate and tyrosine in blood are the key indicators to evaluate the therapeutic effect for phenylketonuria.
(§1) ICR mice (male, 20±2 g) were purchased from Beijing Vital River Laboratory Animal Technology Co., Ltd. All the animals were fed in SPF environment (21±2° C., 12-hour photoperiod) and had free access to food and water during the experiment. Berberine was purchased from the J&K Technology Co. LTD (Beijing, China). Dihydroberberine was purchased from the Mansite Biology & Technology Co. LTD (Chengdu, China). Phenylpyruvate, phenylalanine, and tyrosine were purchased from Solarbio Science&Technology Co. LTD (Beijing, China).
Experimental design: The animals were divided into three groups, including the control group, the 200 mg/kg dihydroberberine oral treated group at 12 h, the 200 mg/kg dihydroberberine oral treated group at 24 h.
(§2) (1) The control group: saline 0.2 mL (oral);
(2) The 100 mg/kg dihydroberberine singe oral treated group at 12 h: 100 mg/kg […] (oral);
(3) The 100 mg/kg dihydroberberine singe oral treated group at 24 h: 100 mg/kg […] (oral).

[2] = test system: ICR mice; assay: Effect of jatrorrhizine on blood phenylpyruvate and tyrosine in ICR mice; type: in vivo
Experimental: The concentrations of phenylpyruvate and tyrosine in blood are the key indicators to evaluate the therapeutic effect for phenylketonuria in children.
as §1, with “China).” for “China). Dihydroberberine was purchased from the Mansite Biology & Technology Co. LTD (Chengdu, China).”
Experimental design: The animals were divided into three groups, including the control group, the 200 mg/kg jatrorrhizine oral treated group at 12 h, the 200 mg/kg jatrorrhizine oral treated group at 24 h.
as §2
(2) The 200 mg/kg jatrorrhizine singe oral treated group at 12 h: 200 mg/kg jatrorrhizine (oral);
(3) The 200 mg/kg jatrorrhizine single oral treated group at 24 h: 200 mg/kg jatrorrhizine (oral).

[3] = test system: α-methylphenylalanine induced phenylketonuria model of suckling rats; assay: Therapeutic effect in α-methylphenylalanine induced phenylketonuria model of suckling rats; type: in vivo, SD suckling rats
Experimental: The phenylpyruvate concentration and ratio of phenylalanine/tyrosine in blood are the key indicators for evaluating the therapeutic effect in phenylketonuria model of suckling rats.
SD suckling rats (1 day old) were purchased from Beijing Vital River Laboratory Animal Technology Co., Ltd. All the animals and female rats were fed in SPF environment (21±2° C., 12-hour photoperiod) and had free access to food and water during the experiment. Berberine was purchased from the J&K Technology Co. LTD (Beijing, China). Phenylpyruvate, phenylalanine, and tyrosine were purchased from Solarbio Science&Technology Co. LTD (Beijing, China). α-Methylphenylalanine was purchased from Sinuokai Technology Co. LTD (Nanjing, China).
High-performance liquid chromatography-triple quadrupole tandem mass spectrometry (LC-MS/MS 8050, Shimadzu Corporation, Japan) was used to quantitatively determine the concentration of dopa, phenylalanine, tyrosine, and phenylpyruvate. Alltima C18 (5 μm, 4.6×150 mm) chromatography column was used in the experiment, and the column temperature was maintained at 40° C. The mobile phase to measure L-dopa was water-formic acid (100: 0.2 v/v) and acetonitrile. The condition of gradient elution was as follows (A: B, 0 min, 90:10; 2.5 min, 80:20; 2.51 min, 5:95; 5 min, 5:95; 5.01 min, 90:10; 8 min 90:10). The flow rate was 0.8 mL/min. Multi-reaction monitoring mode was used for quantization, and the quantitative ion pair of dopa was 198.15→[…] (m/z). Phenylalanine, tyrosine, and phenylpyruvate level were determined using Alltima C18 (5 μm, 4.6×150 mm) chromatography column at column temperature of 40° C. The mobile phase contained water-formic acid (100:0.1 v/v) and methanol. The condition of gradient elution was as follows (A: B, 0 min, 90:10; 1 min, 90:10; 1.01 min, 60:40; 5 min, 5:95; 7 min, 5:95; 7.01 min 90:10; 10 min 90:10). The flow rate was 0.8 mL/min. Multi-reaction monitoring mode was used for quantization. The quantitative ion pair was: phenylalanine, 165.85→120.20; tyrosine, 182.00→136.10; phenylpyruvate, 163.00→91.00.
Experimental design: The animals were divided into 6 groups, including: the normal control group, the model group, the low-dose of oral berberine treated model group, the high-dose of oral berberine treated model group, the intraperitoneal berberine treated model group, and the oral berberine treated pseudo-germ-free model group. The establishment of model started at 2 days old of SD suckling rats, which were administrated for 10 days, and then they were treated for 7 days.
(1) Normal control group: normal saline (s.c.).
(2) Model group: a-methylphenylalanine (s.c. 50 mg/kg/d), and phenylalanine (s.c. 200 mg/kg/d);
(3) Low-dose of oral berberine treated model group: α-methylphenylalanine (s.c. 50 mg/kg/d), phenylalanine (s.c. 200 mg/kg/d), berberine (oral, 100 mg/kg/d);
(4) High-dose of oral berberine treated model group: α-methylphenylalanine (s.c. 50 mg/kg/d), phenylalanine (s.c. 200 mg/kg/d), berberine (oral, 200 mg/kg/d);
(5) Intraperitoneal berberine treated model group: α-methylphenylalanine (s.c. 50 mg/kg/d), phenylalanine (s.c. 200 mg/kg/d), berberine (i.p. 20 mg/kg/d);
(6) Oral berberine treated pseudo-germ-free model group: α-methylphenylalanine (s.c. 50 mg/kg/d), phenylalanine (s.c. 200 mg/kg/d), berberine (oral, 200 mg/kg/d); Antibiotic dose: cefadroxil (100 mg/kg/d), oxytetracycline (300 mg/kg/d), erythromycin (300 mg/kg/d).

Structure (SMILES): COc1ccc2c(c1OC)CN1CCc3cc4c(cc3C1=C2)OCO4 [dihydroberberine]
- Ratio of phenylalanine/tyrosine in blood ([1]; oral administration): reduce
- Tyrosine level in blood ([1]; single oral 100 mg/kg (200 mg/kg), 12 h and 24 h, vs control (FIG. 7)): significantly increased
- Phenylpyruvate level in blood ([1]; single oral 100 mg/kg (200 mg/kg), 12 h and 24 h, vs control (FIG. 8)): significantly decreased

Structure (SMILES): COc1cc2c(cc1O)CC[n+]1cc3c(OC)c(OC)ccc3cc1-2 [jatrorrhizine]
- Ratio of phenylalanine/tyrosine in blood ([2]; oral administration): reduce
- Tyrosine level in blood ([2]; single oral 200 mg/kg, 12 h and 24 h, vs control (FIG. 5)): significantly increased
- Phenylpyruvate level in blood ([2]; single oral 200 mg/kg, 12 h and 24 h, vs control (FIG. 6)): significantly decreased

Structure (SMILES): COc1ccc2cc3[n+](cc2c1OC)CCc1cc2c(cc1-3)OCO2 [berberine]
- Phenylalanine/tyrosine ratio in blood ([3]; intraperitoneal injection 20 mg/kg/d (FIG. 2)): not significantly changed
- Concentration of dopa in brain ([3]; intraperitoneal injection 20 mg/kg/d (FIG. 3)): not significantly changed
- Concentration of dopamine in brain ([3]; intraperitoneal injection 20 mg/kg/d (FIG. 4)): not significantly changed
- Phenylpyruvate level in blood ([3]; intraperitoneal injection 20 mg/kg/d, 7 days (FIG. 1)): not significantly changed
- Phenylpyruvate level in blood ([3]; oral 100 and 200 mg/kg/d for 7 days, vs model group, dose-dependent (FIG. 1)): significantly decreased
- Phenylalanine/tyrosine ratio in blood ([3]; oral 100 and 200 mg/kg/d, vs model group, dose-dependent (FIG. 2)): significantly decreased
- Concentration of dopa in brain ([3]; oral 100 and 200 mg/kg/d, vs model group, dose-dependent (FIG. 3)): significantly increased
- Concentration of dopamine in brain ([3]; oral 100 and 200 mg/kg/d, vs model group, dose-dependent (FIG. 4)): significantly increased
- Level of tyrosine in blood ([3]; oral administration): increase
- Phenylpyruvate level in blood ([3]; pseudo-germ-free (antibiotic treated) model, oral 200 mg/kg/d (FIG. 1)): not significantly changed
- Phenylalanine/tyrosine ratio in blood ([3]; pseudo-germ-free model, oral 200 mg/kg/d (FIG. 2)): not significantly changed
- Concentration of dopa in brain ([3]; pseudo-germ-free model, oral 200 mg/kg/d (FIG. 3)): not significantly changed
- Concentration of dopamine in brain ([3]; pseudo-germ-free model, oral 200 mg/kg/d (FIG. 4)): not significantly changed
